This is an account of results in US20240209028A1, “CNP COMPOUNDS” (priority 2022, published 2024).

SMILES strings stand for the structures. Starred links: 1 amine or outer side, 2 acyl side, 3 side chain; linkers in the order of their positions; H or OH if unused. Positions of bridges follow the written chain, without caps; N, C: chain ends. Residues, ends and D or L forms follow the SMILES beside them. *: point of attachment. C18 diacid = O=C(O)CCCCCCCCCCCCCCCCC(=O)*; γGlu = O=C(O)[C@H](CCC(=O)[*:2])N[*:1]; AEEA = NCCOCCOCC(=O)O

The assay concerns the target T1, human natriuretic peptide receptor 2 (hNPR2) (Homo sapiens, UniProt P20594).
T1 construct: expressed in transfected cells; host or cells: HEK293 (ATCC CRL-1573), clone 35, co-transfected with pGloSensor-42F
T1 sequence (P20594 23-1047): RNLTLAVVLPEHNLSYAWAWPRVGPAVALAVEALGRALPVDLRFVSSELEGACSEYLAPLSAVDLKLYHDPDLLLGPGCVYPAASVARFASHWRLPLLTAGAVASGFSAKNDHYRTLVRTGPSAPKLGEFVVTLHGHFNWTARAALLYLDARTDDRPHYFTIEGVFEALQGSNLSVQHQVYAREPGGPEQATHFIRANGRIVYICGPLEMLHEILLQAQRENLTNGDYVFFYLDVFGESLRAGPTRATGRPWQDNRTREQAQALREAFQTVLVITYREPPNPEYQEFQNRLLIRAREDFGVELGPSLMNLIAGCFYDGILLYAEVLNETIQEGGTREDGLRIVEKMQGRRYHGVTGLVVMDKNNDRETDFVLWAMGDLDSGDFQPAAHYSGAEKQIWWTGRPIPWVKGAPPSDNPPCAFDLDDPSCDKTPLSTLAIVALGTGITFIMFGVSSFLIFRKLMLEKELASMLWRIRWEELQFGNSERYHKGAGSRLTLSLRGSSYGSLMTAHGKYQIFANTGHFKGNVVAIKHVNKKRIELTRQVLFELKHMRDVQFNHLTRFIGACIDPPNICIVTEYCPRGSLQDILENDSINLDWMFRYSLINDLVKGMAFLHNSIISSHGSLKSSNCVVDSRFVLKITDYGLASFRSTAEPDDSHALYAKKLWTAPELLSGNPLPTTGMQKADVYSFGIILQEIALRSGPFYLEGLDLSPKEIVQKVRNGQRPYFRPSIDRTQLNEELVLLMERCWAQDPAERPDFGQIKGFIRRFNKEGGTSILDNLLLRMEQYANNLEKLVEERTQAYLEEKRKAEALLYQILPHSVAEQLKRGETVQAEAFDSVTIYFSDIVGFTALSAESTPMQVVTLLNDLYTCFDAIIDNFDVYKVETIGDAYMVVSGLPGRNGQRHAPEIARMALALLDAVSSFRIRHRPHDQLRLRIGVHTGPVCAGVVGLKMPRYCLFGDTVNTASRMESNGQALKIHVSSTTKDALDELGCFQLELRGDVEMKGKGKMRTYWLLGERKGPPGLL
Kind of assay: In vitro hNPR2 activity assay (cGMP GloSensor reporter, HEK293). The format is cell-based. Conditions: potency relative to CNP22 (0065). Summed up: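 Potency is the EC50 from a four-parameter logistic fit, also expressed relative to the in-plate CNP22 control (×100), with at least two replicates. Compounds (ten concentrations, […], HSA-free diluent with 1% OVA, 0.01% Tween20) were incubated 30 min at 37 °C on HEK293 cells co-expressing hNPR2 and a GloSensor cGMP luciferase. Luminescence detected with Bright-Glo.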
`CC[C@H](C)[C@@H]1NC(=O)[C@H](CCCNC(=N)N)NC(=O)[C@H](CC(=O)O)NC(=O)[C@H](CC(C)C)NC(=O)[C@@H]2CCCN2C(=O)[C@H](CC(C)C)NC(=O)CNC(=O)[C@H](Cc2ccccc2)NC(=O)[C@@H](NC(=O)CNC(=O)[C@H](CO)NC(=O)[C@H](CO)NC(=O)[C@H](CC(C)C)NC(=O)CNC(=O)[C@H](CCCCN)NC(=O)[C@H](CCCCN)NC(=O)[C@H](CCC(N)=O)NC(=O)[C@H](C)NC(=O)CNC(=O)[C@H](CCCCN)NC(=O)[C@H](Cc2ccc(O)cc2)NC(=O)[C@H](CCCCN)NC(=O)[C@H](CCCNC(=N)N)NC(=O)[C@H](C)NC(=O)[C@H](CCC(N)=O)NC(=O)[C@@H]2CCCN2C(=O)[C@H](Cc2c[nH]cn2)NC(=O)[C@H](CCC(=O)O)NC(=O)[C@H](CCC(N)=O)NC(=O)CC[C@H](NC(=O)CC[C@H](NC(=O)CC[C@H](NC(=O)CC[C@H](NC(=O)CC[C@H](NC(=O)CCCCCCCCCCCCCCCCC(=O)O)C(=O)O)C(=O)O)C(=O)O)C(=O)O)C(=O)O)CSSC[C@@H](C(=O)O)NC(=O)CNC(=O)[C@H](CC(C)C)NC(=O)CNC(=O)[C@H](CO)NC(=O)[C@H](CC(C)C)NC(=O)[C@H](CO)NC(=O)CNC1=O` [compound 9482] ({C18 diacid-γGlu-γGlu-γGlu-γGlu-γGlu}-QEHPQARKYKGAQKKGLSSGCFGLPLDRIGSLSGLGC-OH; disulfide 21-37): the “hNPR2 0% HSA. [EC50% rel CNP]” value was 39.4%.
With `CC[C@H](C)[C@@H]1NC(=O)[C@H](CCCNC(=N)N)NC(=O)[C@H](CC(=O)O)NC(=O)[C@H](CC(C)C)NC(=O)[C@@H]2CCCN2C(=O)[C@H](CC(C)C)NC(=O)CNC(=O)[C@H](Cc2ccccc2)NC(=O)[C@@H](NC(=O)CNC(=O)[C@H](CCCCN)NC(=O)[C@H](CO)NC(=O)CNC(=O)CNC(=O)[C@H](CCCCN)NC(=O)[C@H](CCCCN)NC(=O)[C@H](CCC(N)=O)NC(=O)[C@H](C)NC(=O)CNC(=O)[C@H](CCC(=O)O)NC(=O)[C@H](Cc2ccc(O)cc2)NC(=O)COCCOCCNC(=O)COCCOCCNC(=O)CC[C@H](NC(=O)CCCCCCCCCCCCCCCCC(=O)O)C(=O)O)CSSC[C@@H](C(=O)O)NC(=O)CNC(=O)[C@H](CC(C)C)NC(=O)CNC(=O)[C@H](CO)NC(=O)[C@H](CC(C)C)NC(=O)[C@H](CO)NC(=O)CNC1=O` [compound 1377] ({C18 diacid-γGlu-AEEA-AEEA}-YEGAQKKGGSKGCFGLPLDRIGSLSGLGC-OH; disulfide 13-29) the figure was 28.2%; with `CC[C@H](C)[C@@H]1NC(=O)[C@H](CCCNC(=N)N)NC(=O)[C@H](CC(=O)O)NC(=O)[C@H](CC(C)C)NC(=O)[C@@H]2CCCN2C(=O)[C@H](CC(C)C)NC(=O)CNC(=O)[C@H](Cc2ccccc2)NC(=O)[C@@H](NC(=O)CNC(=O)[C@H](CCC(N)=O)NC(=O)[C@H](CO)NC(=O)CNC(=O)CNC(=O)[C@H](CCCCN)NC(=O)[C@H](CCCCN)NC(=O)[C@H](CCC(N)=O)NC(=O)[C@H](C)NC(=O)CNC(=O)[C@H](Cc2c[nH]cn2)NC(=O)[C@H](Cc2ccc(O)cc2)NC(=O)COCCOCCNC(=O)COCCOCCNC(=O)COCCOCCNC(=O)COCCOCCNC(=O)CC[C@H](NC(=O)CC[C@H](NC(=O)CCCCCCCCCCCCCCCCC(=O)O)C(=O)O)C(=O)O)CSSC[C@@H](C(=O)O)NC(=O)CNC(=O)[C@H](CC(C)C)NC(=O)CNC(=O)[C@H](CO)NC(=O)[C@H](CC(C)C)NC(=O)[C@H](CO)NC(=O)CNC1=O` [compound 1434] ({C18 diacid-γGlu-γGlu-AEEA-AEEA-AEEA-AEEA}-YHGAQKKGGSQGCFGLPLDRIGSLSGLGC-OH; disulfide 13-29), 29.0%; with `CC[C@H](C)[C@@H]1NC(=O)[C@H](CCCNC(=N)N)NC(=O)[C@H](CC(=O)O)NC(=O)[C@H](CC(C)C)NC(=O)[C@@H]2CCCN2C(=O)[C@H](CC(C)C)NC(=O)CNC(=O)[C@H](Cc2ccccc2)NC(=O)[C@@H](NC(=O)CNC(=O)[C@H](CCC(N)=O)NC(=O)[C@H](CO)NC(=O)[C@H](CO)NC(=O)CNC(=O)[C@H](Cc2c[nH]cn2)NC(=O)[C@H](Cc2c[nH]cn2)NC(=O)[C@H](CCC(N)=O)NC(=O)[C@H](C)NC(=O)CNC(=O)[C@H](Cc2c[nH]cn2)NC(=O)[C@H](Cc2ccc(O)cc2)NC(=O)[C@H](CCCCN)NC(=O)[C@H](Cc2c[nH]cn2)NC(=O)[C@H](C)NC(=O)[C@H](CCC(N)=O)NC(=O)[C@@H]2CCCN2C(=O)[C@H](Cc2c[nH]cn2)NC(=O)[C@H](CCC(=O)O)NC(=O)[C@H](CCC(N)=O)NC(=O)COCCOCCNC(=O)COCCOCCNC(=O)CC[C@H](NC(=O)CCCCCCCCCCCCCCCCC(=O)O)C(=O)O)CSSC[C@@H](C(=O)O)NC(=O)CNC(=O)[C@H](CC(C)C)NC(=O)CNC(=O)[C@H](CO)NC(=O)[C@H](CC(C)C)NC(=O)[C@H](CO)NC(=O)CNC1=O` [compound 1381] ({C18 diacid-γGlu-AEEA-AEEA}-QEHPQAHKYHGAQHHGSSQGCFGLPLDRIGSLSGLGC-OH; disulfide 21-37), 38.7%.
